Measurements as given in patent publication US7388016B2, “Dibenzonaphthyridine derivatives and methods of use thereof” (Wyeth, priority 2005, dated 2008).

Molecular target: T1, PDK-1 (Homo sapiens, UniProt O15530)
T1 sequence (O15530 1-556): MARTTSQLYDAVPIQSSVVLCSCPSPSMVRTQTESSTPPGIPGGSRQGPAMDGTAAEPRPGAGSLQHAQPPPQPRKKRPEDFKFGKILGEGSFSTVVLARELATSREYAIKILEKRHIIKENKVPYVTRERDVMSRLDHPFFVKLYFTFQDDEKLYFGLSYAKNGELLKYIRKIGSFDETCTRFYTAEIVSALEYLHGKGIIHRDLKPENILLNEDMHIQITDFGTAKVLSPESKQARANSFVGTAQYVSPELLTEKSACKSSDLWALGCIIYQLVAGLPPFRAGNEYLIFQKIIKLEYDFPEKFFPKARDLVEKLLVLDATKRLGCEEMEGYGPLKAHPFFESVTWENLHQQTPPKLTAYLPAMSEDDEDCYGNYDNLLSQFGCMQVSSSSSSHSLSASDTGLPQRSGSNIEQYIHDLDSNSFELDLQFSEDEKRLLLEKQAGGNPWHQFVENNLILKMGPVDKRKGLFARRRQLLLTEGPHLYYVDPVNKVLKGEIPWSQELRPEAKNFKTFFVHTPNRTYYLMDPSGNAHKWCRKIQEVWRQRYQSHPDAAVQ
Assay: In vitro PDK-1 inhibition ELISA assay (phosphorylation of SGK1 on Threonine 256)
Type: biochemical
Conditions: PDK-1 phosphorylates 6xHIS tagged SGK1, 17 minutes reaction, chemiluminescent detection
Experimental: The ability of illustrative Dibenzonaphthyridine Derivatives to inhibit PDK-1 in vitro can be determined using the ELISA assay as decribed in Kobayashi et al., Biochem. J. 339:319-328 (1999) and Park et al., EMBO J. 18:3024-3033 (1999).
In this in vitro assay, PDK-1 kinase phosphorylates SGK1 on Threonine 256. After 17 minutes, the reaction is quenched via the addition of urea. The 6×HIS tagged SGK1 is then bound to 96 well Ni-NTA HisSorb plates and the phosphorylated SGK1 is detected using rabbit derived anti-phospho SGK antibody as the primary antibody and HRP coupled anti-rabbit antibody as the secondary antibody. HRP is then detected using a Chemiluminescent Substrate.

| IC50 | SMILES |
| --- | --- |
| 2.98 µM | COc1cc2c(cc1OC[C@@H]1CCCN1Cc1ccccc1)ncc1c(N)nc3c(C)c(N)ccc3c12 [Ib-43, 10-{[(2S)-1-benzylpyrrolidin-2-yl]methoxy}-11-methoxy-4-methyldibenzo[c,f]-2,7-naphthyridine-3,6-diamine] |
| 0.347 µM | CCN(CC)CCOc1cc2ncc3c(N)nc4c(C)c(N)ccc4c3c2cc1OC [Ib-23, 10-[2-(diethylamino)ethoxy]-11-methoxy-4-methyldibenzo[c,f]-2,7-naphthyridine-3,6-diamine] |
| 0.243 µM | COc1cc2c(cc1OCCCN1CCCCC1)ncc1c(N)nc3c(C)c(N)ccc3c12 [Ib-29, 11-methoxy-4-methyl-10-(3-piperidin-1-ylpropoxy)dibenzo[c,f]-2,7-naphthyridine-3,6-diamine] |
| 0.281 µM | COc1cc2c(cc1OCCN(C)CCN(C)C)ncc1c(N)nc3c(C)c(N)ccc3c12 [Ib-30, 10-{2-[[2-(dimethylamino)ethyl](methyl)amino]ethoxy}-11-methoxy-4-methyldibenzo[c,f]-2,7-naphthyridine-3,6-diamine] |
| 2.4 µM | COc1cc2ncc3c(N)nc4ccccc4c3c2cc1OC [Ib-1, 10,11-dimethoxydibenzo[c,f]-2,7-naphthyridin-6-amine] |
| 0.29 µM | COc1cc2c(cc1NCCCN1CCOCC1)ncc1c(N)nc3c(C)c(N)ccc3c12 [Ib-8, 11-methoxy-4-methyl-N^10-(3-morpholin-4-ylpropyl)dibenzo[c,f]-2,7-naphthyridine-3,6,10-triamine] |
| 1.73 µM | COc1cc2ncc3c(N)nc4c(C)c(N5C(=O)c6ccccc6C5=O)ccc4c3c2cc1OC [Ib-36, 2-(6-amino-10,11-dimethoxy-4-methyldibenzo[c,f]-2,7-naphthyridin-3-yl)-1H-isoindole-1,3(2H)-dione] |
| 36.6 µM | CNc1nc2c(C)c(N)ccc2c2c1cnc1cc(OC)c(OC)cc12 [Ic-1, 10,11-dimethoxy-N-6,4-dimethyldibenzo[c,f]-2,7-naphthyridine-3,6-diamine] |
| 1.01 µM | COc1cc2c(cc1N(C)CCCN(C)C)ncc1c(N)nc3c(C)c(N)ccc3c12 [Ib-5, N^10-[3-(dimethylamino)propyl]-11-methoxy-N^10,4-dimethyldibenzo[c,f]-2,7-naphthyridine-3,6,10-triamine] |
| 4.53 µM | COc1cc2c(cc1OCCC1CCCC1)ncc1c(N)nc3c(C)c(N)ccc3c12 [Ib-45, 10-(2-cyclopentylethoxy)-11-methoxy-4-methyldibenzo[c,f]-2,7-naphthyridine-3,6-diamine] |
| 0.296 µM | COc1cc2c(cc1NCCN1CCOCC1)ncc1c(N)nc3c(C)c(N)ccc3c12 [Ib-9, 11-methoxy-4-methyl-N^10-(2-morpholin-4-ylethyl)dibenzo[c,f]-2,7-naphthyridine-3,6,10-triamine] |
| 0.212 µM | COc1cc2c(cc1OCCC1CC1)ncc1c(N)nc3c(C)c(N)ccc3c12 [Ib-46, 10-(2-cyclopropylethoxy)-11-methoxy-4-methyldibenzo[c,f]-2,7-naphthyridine-3,6-diamine] |
| 0.324 µM | COc1cc2c(cc1OCCN1CCCCC1)ncc1c(N)nc3c(C)c(N)ccc3c12 [Ib-26, 11-methoxy-4-methyl-10-(2-piperidin-1-ylethoxy)dibenzo[c,f]-2,7-naphthyridine-3,6-diamine] |
| 23.8 µM | COc1cc2ncc3c(OC)nc4c(C)c(OC)ccc4c3c2cc1OC [Compound I-1, 2,3,7,10-tetramethoxy-9-methyldibenzo[c,f]-2,7-naphthyridine] |
| 2.41 µM | COc1cc2c(cc1NCCN(C)C)ncc1c(N)nc3c(C)c(N)ccc3c12 [Ib-14, N^10-[2-(dimethylamino)ethyl]-11-methoxy-4-methyldibenzo[c,f]-2,7-naphthyridine-3,6,10-triamine] |
| 0.972 µM | COc1cc2c(cc1NCCCN(C)C)ncc1c(N)nc3c(C)c(N)ccc3c12 [Ib-15, N^10-[3-(dimethylamino)propyl]-11-methoxy-4-methyldibenzo[c,f]-2,7-naphthyridine-3,6,10-triamine] |
| 0.093 µM | COc1cc2ncc3c(N)nc4c(C)c(N)ccc4c3c2cc1OC [Ib-2, 10,11-dimethoxy-4-methyldibenzo[c,f]-2,7-naphthyridine-3,6-diamine] |
| 0.667 µM | COc1cc2c(cc1OCCc1ccc(N(C)C)cc1)ncc1c(N)nc3c(C)c(N)ccc3c12 [Ib-32, 10-{2-[4-(dimethylamino)phenyl]ethoxy}-11-methoxy-4-methyldibenzo[c,f]-2,7-naphthyridine-3,6-diamine] |
| 1.17 µM | COc1cc2c(cc1N(C)CCN(C)C)ncc1c(N)nc3c(C)c(N)ccc3c12 [Ib-6, N^10-[2-(dimethylamino)ethyl]-11-methoxy-N^10,4-dimethyldibenzo[c,f]-2,7-naphthyridine-3,6,10-triamine] |
| 0.273 µM | CCOc1cc2ncc3c(N)nc4c(C)c(N)ccc4c3c2cc1OCC [Ib-3, 10,11-diethoxy-4-methyldibenzo[c,f]-2,7-naphthyridine-3,6-diamine] |
| 0.384 µM | COc1cc2c(cc1OCCC1CCN(C)CC1)ncc1c(N)nc3c(C)c(N)ccc3c12 [Ib-33, 11-methoxy-4-methyl-10-[2-(1-methylpiperidin-4-yl)ethoxy]dibenzo[c,f]-2,7-naphthyridine-3,6-diamine] |
| 0.261 µM | COc1cc2c(cc1OCCN1CCCC1)ncc1c(N)nc3c(C)c(N)ccc3c12 [Ib-22, 11-methoxy-4-methyl-10-(2-pyrrolidin-1-ylethoxy)dibenzo[c,f]-2,7-naphthyridine-3,6-diamine] |
| 0.121 µM | COc1cc2c(cc1OCCCN1CCOCC1)ncc1c(N)nc3c(C)c(N)ccc3c12 [Ib-11, 11-methoxy-4-methyl-10-(3-morpholin-4-ylpropoxy)dibenzo[c,f]-2,7-naphthyridine-3,6-diamine] |
| 0.846 µM | COc1cc2c(cc1NCCCN1CCCC1)ncc1c(N)nc3c(C)c(N)ccc3c12 [Ib-12, 11-methoxy-4-methyl-N^10-(3-pyrrolidin-1-ylpropyl)dibenzo[c,f]-2,7-naphthyridine-3,6,10-triamine] |
| 0.111 µM | COc1cc2c(cc1OCCCN1CCCC1=O)ncc1c(N)nc3c(C)c(N)ccc3c12 [Ib-35, 1-{3-[(7,10-diamino-2-methoxy-9-methyldibenzo[c,f]-2,7-naphthyridin-3-yl)oxy]propyl}pyrrolidin-2-one] |
| 0.539 µM | COc1cc2c(cc1OCCc1c[nH]c3ccccc13)ncc1c(N)nc3c(C)c(N)ccc3c12 [Ib-31, 10-[2-(1H-indol-3-yl)ethoxy]-11-methoxy-4-methyldibenzo[c,f]-2,7-naphthyridine-3,6-diamine] |
| 0.196 µM | COc1cc2c(cc1OCCCN(C)C)ncc1c(N)nc3c(C)c(N)ccc3c12 [Ib-21, 10-[3-(dimethylamino)propoxy]-11-methoxy-4-methyldibenzo[c,f]-2,7-naphthyridine-3,6-diamine] |
| 0.295 µM | CCN(CC)CCCOc1cc2ncc3c(N)nc4c(C)c(N)ccc4c3c2cc1OC [Ib-27, 10-[3-(diethylamino)propoxy]-11-methoxy-4-methyldibenzo[c,f]-2,7-naphthyridine-3,6-diamine] |

| SMILES | IC50 |
| --- | --- |
| COc1cc2c(cc1OCCC(C)(C)C)ncc1c(N)nc3c(C)c(N)ccc3c12 [Ib-41, 10-(3,3-dimethylbutoxy)-11-methoxy-4-methyldibenzo[c,f]-2,7-naphthyridine-3,6-diamine] | 6.44 µM |
| COc1cc2c(cc1OCCN1CC1)ncc1c(N)nc3c(C)c(N)ccc3c12 [Ib-19, 10-(2-aziridin-1-ylethoxy)-11-methoxy-4-methyldibenzo[c,f]-2,7-naphthyridine-3,6-diamine] | 0.482 µM |
